Settings: 355.18 K, Liquid, Vibrating tube method

FC(F)=C(F)C(F)(F)F [hexafluoropropene]
Settings | mass density [kg/m3]
3539.3 kPa | 945.7
3560.5 kPa | 947.64
3582.1 kPa | 949.46
3603.9 kPa | 951.17
3625.9 kPa | 953.18
3667.2 kPa | 956.48
3687.7 kPa | 958.15
3708.3 kPa | 959.83
3730.3 kPa | 961.36
3751.6 kPa | 963.12
3773.4 kPa | 964.61
3795.3 kPa | 966.25
3807.5 kPa | 967.13
3828.9 kPa | 968.54
3851.4 kPa | 970.11
3873.7 kPa | 971.7
3916.8 kPa | 974.54
3938.9 kPa | 976.09
3959.3 kPa | 977.28
3981 kPa | 978.83
4015.2 kPa | 980.9
4033.6 kPa | 981.94
4071.4 kPa | 984.1
4091.9 kPa | 985.37
4110.7 kPa | 986.72
4129.8 kPa | 987.54
4149.4 kPa | 988.81
4167.6 kPa | 989.92
4186.6 kPa | 990.96
4206.8 kPa | 992.1
4226.2 kPa | 992.98
4244.6 kPa | 994.12
4263.6 kPa | 995.02
4281.8 kPa | 995.99
4338 kPa | 998.86
4375.5 kPa | 1000.94
4413 kPa | 1002.73
4449.8 kPa | 1004.57
4487.2 kPa | 1006.43
4525 kPa | 1008.13
4562.1 kPa | 1009.97
4599 kPa | 1011.6
4638.8 kPa | 1013.65
4677.4 kPa | 1015.25
4716.6 kPa | 1016.92
4794.9 kPa | 1020.36
4873.9 kPa | 1023.7
4913.4 kPa | 1025.32
4951 kPa | 1026.84
4991.2 kPa | 1028.51
5029.8 kPa | 1029.94
5070.6 kPa | 1031.42
5113 kPa | 1033.05
5154.1 kPa | 1034.66
5236.8 kPa | 1037.65
5275.8 kPa | 1039.14
5316.9 kPa | 1040.61
5355.6 kPa | 1041.9
5398.7 kPa | 1043.42
5439.2 kPa | 1044.89
5483.2 kPa | 1046.3
5561 kPa | 1048.84
5601.4 kPa | 1050.18
5642.3 kPa | 1051.53
5684.6 kPa | 1052.92
5724.6 kPa | 1054.21
5768.2 kPa | 1055.5
5808.2 kPa | 1056.73
5848.7 kPa | 1058.05
5893.8 kPa | 1059.3
5935.5 kPa | 1060.51
5972.8 kPa | 1061.59
6013.5 kPa | 1062.81
6113.5 kPa | 1065.75
6163.2 kPa | 1067.09
6213.3 kPa | 1068.54
6263.6 kPa | 1069.94
6313.1 kPa | 1071.25
6362.4 kPa | 1072.65
6411 kPa | 1074
6461.2 kPa | 1075.29
6562.7 kPa | 1077.95
6611.5 kPa | 1079.21
6661.1 kPa | 1080.53
6710.9 kPa | 1081.81
6761.1 kPa | 1083.05
6812.8 kPa | 1084.3
6865.2 kPa | 1085.67
6915.7 kPa | 1086.78
6965.9 kPa | 1088.01
7014.9 kPa | 1089.29
7065.8 kPa | 1090.44
7164.6 kPa | 1092.85
7216.4 kPa | 1093.92
7265.8 kPa | 1095.06
7366.2 kPa | 1097.33
7415.2 kPa | 1098.43
7466 kPa | 1099.6
7516.3 kPa | 1100.77
7566.3 kPa | 1101.91
7616.2 kPa | 1102.85
7718.1 kPa | 1105.05
7768.7 kPa | 1106.11
7817.3 kPa | 1107.12
7868.8 kPa | 1108.17
7921.6 kPa | 1109.13
7971.5 kPa | 1110.3
8069.1 kPa | 1112.3
8121.2 kPa | 1113.23
8171.1 kPa | 1114.28
8220.8 kPa | 1115.22
8273.9 kPa | 1116.3
8324.3 kPa | 1117.22
8376.9 kPa | 1118.25
8428.6 kPa | 1119.32
8478.5 kPa | 1120.28
8528.9 kPa | 1121.22
8578.5 kPa | 1122.06
8628.9 kPa | 1123.04
8681.5 kPa | 1124
8731.5 kPa | 1124.98
8781.2 kPa | 1125.78
8835.2 kPa | 1126.86
8886.8 kPa | 1127.78
8989.2 kPa | 1129.56
9039.4 kPa | 1130.46
9089.8 kPa | 1131.27
9138.1 kPa | 1132.17
9187.7 kPa | 1132.92
9238.4 kPa | 1133.87
9290.5 kPa | 1134.77
9339.3 kPa | 1135.6
9390.7 kPa | 1136.39
9440.4 kPa | 1137.24

From the NIST ThermoML archive (doi:10.1021/je900596d)
